Test [1] relates to locomotor hyperactivity induced by cocaine and morphine. Kind of test: Locomotor hyperactivity (hypermotility) induced by cocaine and morphine, Videotrack total distance. In kind it is in vivo, rats. Particulars: for effect on the spontaneous motility of the animal: alone, neboglamine 30 mg/kg, glycine 300 mg/kg i.p. The protocol: The motor activity was measured with a video camera and recorded using the Videotrack 512 system as described by Garofalo (J. Pharm. Pharmacol. 48: 1290-1297, 1996).
The locomotor activity was recorded for 15 minutes and the total distance covered (in cm) by the animal was recorded by the computer connected to the video camera.

Test [2] relates to locomotor hyperactivity, tolerance and dependency induced by morphine. The conditions noted are these: mice; Shin et al. 2003; cited from earlier work.
In test [3] the test system is inverse tolerance induced by chronic treatment with morphine. Description: Inverse tolerance (increased sensitivity) induced by chronic treatment with morphine, locomotor activity.
The test system of test [4] is tolerance and abstinence crisis induced by chronic treatment with diazepam. Description: Elevated zero maze: tolerance and abstinence crisis induced by chronic treatment with diazepam. Format: in vivo, rats. The protocol: The experiment was performed in an elevated zero maze in accordance with the procedure described by Shepard et al. (Psychopharmacology 116: 56-64, 1994) with minor changes.
The rat, placed in one of the closed quadrants, had free access to all 4 of the quadrants (2 open and 2 closed) for a period of 5 minutes. A compound with anxiolytic activity produces a percentage increase in the time spent in the free quadrants.
In the acute studies, the compounds were administered via the s.c. route 30 minutes before the experiment, whereas in the tolerance and “withdrawal” experiments, they were administered via the s.c. route twice a day for 7 days and then retested 40 hours after the end of the chronic treatment.

Test [5] concerns memory and learning. Particulars: various animal models; Garofalo et al. 1996; cited from earlier work.
Setting [6] is: substance alone with physiological saline, neboglamine 30 or glycine 300 mg/kg i.p., cocaine 20 or morphine 10 mg/kg s.c., recorded 15 min.
Where [7] appears, read: drug = morphine 10 mg/kg s.c., neboglamine 30 or glycine 300 mg/kg i.p. 30 min before.
Where [8] appears, read: neboglamine 30 or glycine 300 mg/kg i.p. 30 min before morphine 10 mg/kg s.c.
Setting [9] is: neboglamine 30 or glycine 300 mg/kg i.p. 30 min before morphine 10 mg/kg s.c., recorded 15 min.
[10] abbreviates: chronic morphine 10 mg/kg s.c. x 7 days.
Setting [11] is: acute, s.c. 30 min before, diazepam 5 mg/kg, neboglamine 30 mg/kg.
Where [12] appears, read: acute, s.c. 30 min before, diazepam 5 mg/kg, neboglamine 30 mg/kg, 5 min test.
[13] abbreviates: withdrawal (D-W): diazepam for 7 days, retested 40 hours later with physiological saline.
[14] abbreviates: neboglamine 30 mg/kg s.c. x 2 (x7 days) + 30 co-administered with chronic diazepam (D-C) + 5 (D), tolerance.
Setting [15] is: withdrawal: diazepam and neboglamine for 7 days, retested 40 hours later with physiological saline.
The mark [16] stands for this setting: neboglamine 30 mg/kg i.p. 30 min before morphine 10 mg/kg s.c., x 7 days.

The text below walks through data of US20100197962A1 (priority 2005, published 2010).

Several values for one entry are separate records, joined by “and”; a condition that tells them apart may be missing. Equal values may be shown once.

For the molecule `COC(=O)[C@H]1[C@@H](OC(=O)c2ccccc2)C[C@@H]2CC[C@H]1N2C` [Cocaine, cocaine, reference compound], in test [1] (setting [6]), the “% increase vs. physiological saline” value is given as 75.7% and the “Total distance (cm)” value is given as 5800 cm.

For `NCC(=O)O` [Glycine, glycine, reference compound], the “effect on the spontaneous motility of the animal” value in test [1] is “do not significantly alter”. Besides, the “% inhibition vs. the drug (D)” value was 52.5% in test [1] (setting [7]) and 52.5^(2) % in test [1] (drug = morphine 10 mg/kg s.c., neboglamine 30 or glycine 300 mg/kg i.p. 30 min before, listed as G). The “% increase vs. physiological saline” value in test [1] (setting [8]) was 28.8%. Also, the “Total distance (cm)” value worked out at 4250 cm in test [1] (setting [9]) and 2900 cm in test [1] (setting [6]). For the same molecule, in test [2], the “inhibition of morphine-induced locomotor hyperactivity, tolerance and dependency” value was “capable of inhibiting the locomotor hyperactivity, tolerance and dependency induced by morphine”.

Take `CN1CC[C@]23c4c5ccc(O)c4O[C@H]2[C@@H](O)C=C[C@H]3[C@H]1C5` [Morphine, morphine, reference compound]: in test [1] (setting [6]), the “% increase vs. physiological saline” value turned out to be 60.6% and the “Total distance (cm)” value is 5300 cm. In test [3] (setting [10]), the “% increase vs. physiological saline” value is given as 128.6% and the “Total distance (cm)” value turned out to be 6400 cm. In test [3] (chronic vs acute morphine 10 mg/kg s.c.), the “increase in the motor activity by chronic treatment compared with the acute effect of the drug” value is “about 50%”.

For the molecule `CN1C(=O)CN=C(c2ccccc2)c2cc(Cl)ccc21` [diazepam, reference compound], the “% effect vs. controls (saline)” value is 262.5% in test [4] (setting [11]); 145% in test [4] (chronic diazepam (D-C) 5 mg/kg s.c. x 2 (x7 days) + 5 (D), tolerance, 5 mg/kg); 37.5% in test [4] (setting [13]). Further, the “Time (seconds) spent in the open quadrants” value was 105 s in test [4] (setting [12]); 58 s in test [4] (chronic diazepam (D-C) 5 mg/kg s.c. x 2 (x7 days) + 5 (D), tolerance); 15 s in test [4] (setting [13]).

“(S)-4-amino-N-(4,4-dimethylcyclohexyl)glutamic acid [Neboglamine]”: the “% increase vs. physiological saline” value in test [1] (30 mg/kg i.p. 30 min before cocaine 20 mg/kg s.c.) is 9.1%; in test [1] (setting [8]), 13.6%; in test [3] (setting [16]), 37.5%. For the same molecule, the “Total distance (cm)” value in test [1] (30 mg/kg i.p. 30 min before cocaine 20 mg/kg s.c., recorded 15 min) is reported as 3600 cm; in test [1] (setting [9]) it was 3750 cm; in test [1] (setting [6]), 3150 cm; in test [3] (setting [16]) it was 3850 cm. Moreover, the “effect on the spontaneous motility of the animal” value in test [1] is “do not significantly alter”. Also, the “% inhibition vs. the drug (D)” value is on record as 88% in test [1] (drug = cocaine 20 mg/kg s.c., 30 mg/kg i.p. 30 min before); 88.0^(1) % in test [1] (drug = cocaine 20 mg/kg s.c., 30 mg/kg i.p. 30 min before, listed as N); 77.5% in test [1] (setting [7]); 77.5^(1) % in test [1] (drug = morphine 10 mg/kg s.c., neboglamine 30 or glycine 300 mg/kg i.p. 30 min before, listed as N). Moreover, the “% effect vs. controls (saline)” value in test [4] (setting [11]) is reported as 127%; in test [4] (acute, s.c. 30 min before, diazepam 5 mg/kg, neboglamine 30 mg/kg, listed as neboglamine), 127.0%; in test [4] (setting [14]) it was 192.5%; in test [4] (setting [15]), 110.0%; in test [4] (withdrawal: diazepam and neboglamine for 7 days, retested 40 hours later with physiological saline, listed as neboglamine), 110%. For the same molecule, the “Time (seconds) spent in the open quadrants” value came out at 51 s in test [4] (setting [12]), 77 s in test [4] (setting [14]) and 44 s in test [4] (setting [15]). Also, the “promoting memory and learning” value in test [5] is “advantageous properties of promoting memory and learning”. Also, the “% inhibition of the hypersensitivity of morphine” value in test [3] (setting [16]) is 70.8% and 70.8^(1) %.
